From PubChem BioAssay (NCI)
Several values for one entry are separate records, joined by “and”; a condition that tells them apart may be missing. Equal entries are not always repeated.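 Cultured in 96-well plates, cells were exposed to test compound for 48 hours across five concentrations. TGI is the concentration that stops growth completely.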

Tests used:
Experiment in all cases: NCI anticancer screen, dose series, 48 h
KM20L2 colon = test system: KM20L2 colon
COLO 205 colon = test system: COLO 205 colon
DMS 114 small cell lung = test system: DMS 114 small cell lung
HT29 colon = test system: HT29 colon
HOP-18 NSCLC = test system: HOP-18 NSCLC
UO-31 renal = test system: UO-31 renal
K-562 leukemia = test system: K-562 leukemia
HCT-15 colon = test system: HCT-15 colon
XF 498 CNS = test system: XF 498 CNS
A498 renal = test system: A498 renal
LOX IMVI melanoma = test system: LOX IMVI melanoma
HL-60(TB) leukemia = test system: HL-60(TB) leukemia
SK-MEL-5 melanoma = test system: SK-MEL-5 melanoma
HOP-62 NSCLC = test system: HOP-62 NSCLC
EKVX NSCLC = test system: EKVX NSCLC
OVCAR-5 ovarian = test system: OVCAR-5 ovarian
RPMI-8226 leukemia = test system: RPMI-8226 leukemia
NCI-H460 lung = test system: NCI-H460 lung
DLD-1 colon = test system: DLD-1 colon
SK-MEL-28 melanoma = test system: SK-MEL-28 melanoma
HCC-2998 colon = test system: HCC-2998 colon
SR leukemia = test system: SR leukemia
LXFL 529 NSCLC = test system: LXFL 529 NSCLC
SF-295 CNS = test system: SF-295 CNS
RXF-631 renal = test system: RXF-631 renal
UACC-62 melanoma = test system: UACC-62 melanoma
SNB-75 CNS = test system: SNB-75 CNS
SNB-78 CNS = test system: SNB-78 CNS
SK-OV-3 ovarian = test system: SK-OV-3 ovarian
ACHN renal = test system: ACHN renal
UACC-257 melanoma = test system: UACC-257 melanoma
KM12 colon = test system: KM12 colon
A549 NSCLC = test system: A549 NSCLC
HCT-116 colon = test system: HCT-116 colon
M19-MEL melanoma = test system: M19-MEL melanoma
SW-620 colon = test system: SW-620 colon
OVCAR-8 ovarian = test system: OVCAR-8 ovarian
CAKI-1 renal = test system: CAKI-1 renal
RXF 393 renal = test system: RXF 393 renal
NCI-H522 lung = test system: NCI-H522 lung
M14 melanoma = test system: M14 melanoma
U251 CNS = test system: U251 CNS
TK-10 renal = test system: TK-10 renal
SN12C renal = test system: SN12C renal
MALME-3M melanoma = test system: MALME-3M melanoma
NCI-H23 lung = test system: NCI-H23 lung
NCI-H226 lung = test system: NCI-H226 lung
MOLT-4 leukemia = test system: MOLT-4 leukemia
SF-268 CNS = test system: SF-268 CNS
OVCAR-3 ovarian = test system: OVCAR-3 ovarian
786-0 renal = test system: 786-0 renal
DMS 273 small cell lung = test system: DMS 273 small cell lung
HOP-92 NSCLC = test system: HOP-92 NSCLC
OVCAR-4 ovarian = test system: OVCAR-4 ovarian
IGROV1 ovarian = test system: IGROV1 ovarian
SNB-19 CNS = test system: SNB-19 CNS
SF-539 CNS = test system: SF-539 CNS
CCRF-CEM leukemia = test system: CCRF-CEM leukemia
SK-MEL-2 melanoma = test system: SK-MEL-2 melanoma

Compound: O=S(=O)(O)SC/C=C\CSS(=O)(=O)O
- TGI (KM20L2 colon): > 100 µM
- TGI (COLO 205 colon): > 100 µM
- TGI (DMS 114 small cell lung): > 100 µM
- TGI (HT29 colon): > 100 µM
- TGI (HOP-18 NSCLC): > 100 µM
- TGI (UO-31 renal): > 100 µM
- TGI (K-562 leukemia): > 100 µM
- TGI (HCT-15 colon): > 100 µM
- TGI (XF 498 CNS): > 100 µM
- TGI (A498 renal): > 100 µM
- TGI (LOX IMVI melanoma): > 100 µM
- TGI (HL-60(TB) leukemia): > 100 µM
- TGI (SK-MEL-5 melanoma): > 100 µM
- TGI (HOP-62 NSCLC): > 100 µM
- TGI (EKVX NSCLC): > 100 µM
- TGI (OVCAR-5 ovarian): > 100 µM
- TGI (RPMI-8226 leukemia): > 100 µM
- TGI (NCI-H460 lung): > 100 µM
- TGI (DLD-1 colon): > 100 µM
- TGI (SK-MEL-28 melanoma): > 100 µM
- TGI (HCC-2998 colon): > 100 µM
- TGI (SR leukemia): > 100 µM
- TGI (LXFL 529 NSCLC): > 100 µM
- TGI (SF-295 CNS): > 100 µM
- TGI (RXF-631 renal): > 100 µM
- TGI (UACC-62 melanoma): > 100 µM
- TGI (SNB-75 CNS): > 100 µM
- TGI (SNB-78 CNS): > 100 µM
- TGI (SK-OV-3 ovarian): > 100 µM
- TGI (ACHN renal): > 100 µM
- TGI (UACC-257 melanoma): > 100 µM
- TGI (KM12 colon): > 100 µM and 61.2 µM
- TGI (A549 NSCLC): > 100 µM
- TGI (HCT-116 colon): > 100 µM
- TGI (M19-MEL melanoma): > 100 µM
- TGI (SW-620 colon): > 100 µM
- TGI (OVCAR-8 ovarian): > 100 µM
- TGI (CAKI-1 renal): > 100 µM
- TGI (RXF 393 renal): > 100 µM
- TGI (NCI-H522 lung): > 100 µM
- TGI (M14 melanoma): > 100 µM
- TGI (U251 CNS): > 100 µM
- TGI (TK-10 renal): > 100 µM
- TGI (SN12C renal): > 100 µM
- TGI (MALME-3M melanoma): > 100 µM
- TGI (NCI-H23 lung): > 100 µM
- TGI (NCI-H226 lung): > 100 µM
- TGI (MOLT-4 leukemia): > 100 µM
- TGI (SF-268 CNS): > 100 µM
- TGI (OVCAR-3 ovarian): > 100 µM
- TGI (786-0 renal): > 100 µM
- TGI (DMS 273 small cell lung): > 100 µM
- TGI (HOP-92 NSCLC): > 100 µM
- TGI (OVCAR-4 ovarian): > 100 µM
- TGI (IGROV1 ovarian): > 100 µM
- TGI (SNB-19 CNS): > 100 µM
- TGI (SF-539 CNS): > 100 µM

Compound: Nc1ccc2c(c1)C(=O)N(OS(=O)(=O)c1ccccc1)C2=O
- TGI (KM20L2 colon): > 100 µM
- TGI (COLO 205 colon): > 100 µM
- TGI (DMS 114 small cell lung): > 100 µM
- TGI (HT29 colon): > 100 µM
- TGI (HOP-18 NSCLC): > 100 µM
- TGI (UO-31 renal): > 100 µM
- TGI (K-562 leukemia): > 100 µM
- TGI (HCT-15 colon): > 100 µM
- TGI (XF 498 CNS): > 100 µM
- TGI (A498 renal): > 100 µM
- TGI (LOX IMVI melanoma): > 100 µM
- TGI (HL-60(TB) leukemia): > 100 µM
- TGI (SK-MEL-5 melanoma): > 100 µM
- TGI (HOP-62 NSCLC): > 100 µM
- TGI (EKVX NSCLC): > 100 µM
- TGI (OVCAR-5 ovarian): > 100 µM
- TGI (NCI-H460 lung): > 100 µM
- TGI (DLD-1 colon): > 100 µM
- TGI (SK-MEL-28 melanoma): > 100 µM
- TGI (HCC-2998 colon): > 100 µM
- TGI (LXFL 529 NSCLC): > 100 µM
- TGI (SF-295 CNS): > 100 µM
- TGI (RXF-631 renal): > 100 µM
- TGI (UACC-62 melanoma): > 100 µM
- TGI (SNB-75 CNS): > 100 µM
- TGI (SNB-78 CNS): > 100 µM
- TGI (SK-OV-3 ovarian): > 100 µM
- TGI (ACHN renal): > 100 µM
- TGI (UACC-257 melanoma): > 100 µM
- TGI (CCRF-CEM leukemia): > 100 µM
- TGI (KM12 colon): > 100 µM
- TGI (A549 NSCLC): > 100 µM
- TGI (HCT-116 colon): > 100 µM
- TGI (M19-MEL melanoma): > 100 µM
- TGI (SW-620 colon): > 100 µM
- TGI (OVCAR-8 ovarian): > 100 µM
- TGI (CAKI-1 renal): > 100 µM
- TGI (RXF 393 renal): > 100 µM
- TGI (NCI-H522 lung): 60.7 µM
- TGI (M14 melanoma): > 100 µM
- TGI (U251 CNS): > 100 µM
- TGI (TK-10 renal): > 100 µM
- TGI (SN12C renal): > 100 µM
- TGI (MALME-3M melanoma): > 100 µM
- TGI (NCI-H23 lung): > 100 µM
- TGI (NCI-H226 lung): > 100 µM
- TGI (SF-268 CNS): > 100 µM
- TGI (OVCAR-3 ovarian): > 100 µM
- TGI (786-0 renal): > 100 µM
- TGI (DMS 273 small cell lung): > 100 µM
- TGI (HOP-92 NSCLC): > 100 µM
- TGI (SK-MEL-2 melanoma): > 100 µM
- TGI (OVCAR-4 ovarian): > 100 µM
- TGI (IGROV1 ovarian): > 100 µM
- TGI (SNB-19 CNS): > 100 µM
- TGI (SF-539 CNS): > 100 µM
